Test results reported in paper PMC9228567 (2022).

Test system: cy5-TTRS (WT Tte-PreQ1 riboswitch aptamer) (RNA, riboswitch) CUCACCUGGGUCGCAGUAACCCCAGUUAACAAAACAAGGGAGGUAAUUUU
Assay: microscale thermophoresis
Conditions: 100 mM KCl, 1 mM MgCl2; 50 mM Tris pH 7.5, RT, DMSO; apparent, single-site fit

Q: `NCc1c[nH]c2nc(N)[nH]c(=O)c12` was tested. Which KD did it give?
A: The KD was 11.7 ± 0.35 nM.
